From patent publication US20160046618A1, “Cyclopropyl Fused Thiazin-2-Amine Compounds as Beta-Secretase Inhibitors and Methods of Use” (AMGEN INC., priority 2014, published 2016)

Experiments:
[1] = biological target: human recombinant BACE2 (Homo sapiens (Human), UniProt Q9Y5Z0); test: In vitro enzymatic BACE2 FRET assay; format: biochemical; settings: read-out: IC50 IP (μM) BACE2 enzyme
Summary of the method: (§1)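 Tris addition raises the pH to neutral to stop the reaction before fluorescence is measured at 590 nm emission with 488 nm excitation.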

[2] = biological target: Recombinant Cat D (Homo sapiens (Human), UniProt P07339); test: In vitro enzymatic Cathepsin D (Cat D) FRET assay; format: biochemical; settings: read-out: IC50 IP (μM) CatD
Summary of the method: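 Cleavage of a 20 nM FRET peptide by CHO-derived Cat D over 1 h at pH 3.5 (citrate buffer with CHAPS, 10% DMSO final). Endpoint fluorescence is read after Tris quench.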

[3] = biological target: human recombinant BACE1 (Homo sapiens (Human), UniProt P56817); test: In vitro enzymatic BACE1 FRET assay; format: biochemical; settings: read-out: IC50 IP (μM) BACE1 enzyme
Summary of the method: as §1

[4] = system: Aβ40 in conditioned medium of cells stably expressing Amyloid Precursor Protein (APP); test: In vitro BACE-1 cell-based assay (Aβ40 sandwich ELISA); settings: read-out: IC50 IP (μM) BACE1 cell
Summary of the method: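 Read-out: time-resolved fluorescence (Streptavidin-Europium) of Aβ40 captured by pAb40 and detected with biotinylated 6E10 from supernatants of APP-stable cells. Cells were exposed to compound for 24 h, 10-point dose response, top dose 100 μM or 10 μM, 0.1% DMSO. IC50 fitted to percent of control.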

Sequence of Recombinant Cat D (P07339 65-412): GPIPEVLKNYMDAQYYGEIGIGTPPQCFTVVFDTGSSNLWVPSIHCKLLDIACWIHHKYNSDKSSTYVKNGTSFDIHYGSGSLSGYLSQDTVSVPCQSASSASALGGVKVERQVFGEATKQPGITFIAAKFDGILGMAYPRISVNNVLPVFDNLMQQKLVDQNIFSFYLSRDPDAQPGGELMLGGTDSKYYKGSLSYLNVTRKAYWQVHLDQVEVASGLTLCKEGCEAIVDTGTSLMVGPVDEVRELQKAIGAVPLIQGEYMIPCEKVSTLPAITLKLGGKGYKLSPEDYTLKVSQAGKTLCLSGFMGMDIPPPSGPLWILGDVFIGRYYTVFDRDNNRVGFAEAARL
Sequence of human recombinant BACE1 (P56817 46-501): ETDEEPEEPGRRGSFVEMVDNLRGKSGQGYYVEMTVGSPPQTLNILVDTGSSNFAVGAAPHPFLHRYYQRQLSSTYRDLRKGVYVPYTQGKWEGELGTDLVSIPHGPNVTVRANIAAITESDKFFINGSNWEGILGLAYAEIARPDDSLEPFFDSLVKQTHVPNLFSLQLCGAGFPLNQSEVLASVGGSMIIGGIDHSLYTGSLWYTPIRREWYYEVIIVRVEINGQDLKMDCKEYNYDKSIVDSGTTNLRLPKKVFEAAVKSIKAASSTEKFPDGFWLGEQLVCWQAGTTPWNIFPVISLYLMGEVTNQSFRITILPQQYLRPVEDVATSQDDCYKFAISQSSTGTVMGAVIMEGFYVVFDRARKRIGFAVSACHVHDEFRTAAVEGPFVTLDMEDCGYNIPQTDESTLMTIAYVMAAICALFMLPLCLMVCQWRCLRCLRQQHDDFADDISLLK
Sequence of human recombinant BACE2 (Q9Y5Z0 63-518): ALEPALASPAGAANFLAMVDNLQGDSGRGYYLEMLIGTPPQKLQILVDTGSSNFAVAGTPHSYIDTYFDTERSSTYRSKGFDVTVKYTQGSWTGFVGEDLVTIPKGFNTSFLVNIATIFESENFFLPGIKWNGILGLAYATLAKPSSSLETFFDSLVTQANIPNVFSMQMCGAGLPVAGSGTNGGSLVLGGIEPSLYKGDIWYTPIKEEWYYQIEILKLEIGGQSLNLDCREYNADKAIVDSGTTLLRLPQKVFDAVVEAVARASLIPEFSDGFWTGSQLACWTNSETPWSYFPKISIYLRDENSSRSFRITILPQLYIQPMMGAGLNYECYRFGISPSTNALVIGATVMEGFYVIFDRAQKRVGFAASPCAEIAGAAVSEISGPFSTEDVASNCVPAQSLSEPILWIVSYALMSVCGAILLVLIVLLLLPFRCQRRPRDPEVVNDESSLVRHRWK

Row | SMILES | IC50 [1] | IC50 [2] | IC50 [3] | IC50 [4]
1 | COCCOc1cnc2c(Nc3cc(F)c(F)c([C@@]4(C)N=C(N)S[C@@]5(COC)C[C@H]54)c3)ncnc2c1 [Example 946, N-(3-((1S,5S,6S)-3-amino-1-(methoxymethyl)-5-methyl-2-thia-4-azabicyclo[4.1.0]hept-3-en-5-yl)-4,5-difluorophenyl)-7-(2-methoxyethoxy)pyrido[3,2-d]pyrimidin-4-amine] | 0.517 µM | 352 µM | 26.8 nM | 0.0174 µM
2 | COCCOc1cnc2c(Nc3ccc(F)c([C@@]4(CF)N=C(N)S[C@@]5(COC)C[C@H]54)c3)ncnc2c1 [Example 947, N-(3-((1S,5S,6S)-3-amino-5-(fluoromethyl)-1-(methoxymethyl)-2-thia-4-azabicyclo[4.1.0]hept-3-en-5-yl)-4-fluorophenyl)-7-(2-methoxyethoxy)pyrido[3,2-d]pyrimidin-4-amine] | 0.519 µM | 595 µM | 28.2 nM | 0.0337 µM
3 | COC[C@]12C[C@H]1[C@@](C)(c1cc(Nc3ncnc4cc(OCc5nc(C)oc5C)cnc34)cc(F)c1F)N=C(N)S2 [Example 948, N-(3-((1S,5S,6S)-3-amino-1-(methoxymethyl)-5-methyl-2-thia-4-azabicyclo[4.1.0]hept-3-en-5-yl)-4,5-difluorophenyl)-7-((2,5-dimethyl-1,3-oxazol-4-yl)methoxy)pyrido[3,2-d]pyrimidin-4-amine] | 0.144 µM | 80.9 µM | 3.04 nM | 0.0102 µM
4 | C[C@]1(c2cc(Nc3ncc(F)c4cc(OCc5ncco5)cnc34)cc(F)c2F)N=C(N)S[C@@]2(C(F)F)C[C@@H]12 [Example 949, N-(3-((1S,5S,6S)-3-amino-1-(difluoromethyl)-5-methyl-2-thia-4-azabicyclo[4.1.0]hept-3-en-5-yl)-4,5-difluorophenyl)-5-fluoro-3-(1,3-oxazol-2-ylmethoxy)-1,7-naphthyridin-8-amine] | 0.0588 µM | 336 µM | 2.45 nM | 0.0841 µM
5 | COC[C@]12C[C@H]1[C@@](C)(c1cc(Nc3ncc(F)c4cc(OCc5ncco5)cnc34)cc(F)c1F)N=C(N)S2 [Example 950, N-(3-((1S,5S,6S)-3-amino-1-(methoxymethyl)-5-methyl-2-thia-4-azabicyclo[4.1.0]hept-3-en-5-yl)-4,5-difluorophenyl)-5-fluoro-3-(1,3-oxazol-2-ylmethoxy)-1,7-naphthyridin-8-amine] | 0.118 µM | 384 µM | 5.1 nM | 0.104 µM
6 | C#CCOc1cnc2c(Nc3cc(F)c(F)c([C@@]4(C)N=C(N)S[C@@]5(COC)C[C@H]54)c3)ncc(F)c2c1 [Example 951, N-(3-((1S,5S,6S)-3-amino-1-(methoxymethyl)-5-methyl-2-thia-4-azabicyclo[4.1.0]hept-3-en-5-yl)-4,5-difluorophenyl)-5-fluoro-3-(2-propyn-1-yloxy)-1,7-naphthyridin-8-amine] | 0.0497 µM | 915 µM | 2.33 nM | 0.0603 µM
7 | CCC#CCOc1cnc2c(Nc3ccc(F)c([C@@]4(CF)N=C(N)S[C@@]5(/C=C/C(=O)N(C)C)C[C@H]54)c3)nccc2n1 [Example 952, (2E)-3-((1R,5S,6S)-3-amino-5-(fluoromethyl)-5-(2-fluoro-5-((2-(2-pentyn-1-yloxy)pyrido[3,4-b]pyrazin-5-yl)amino)phenyl)-2-thia-4-azabicyclo[4.1.0]hept-3-en-1-yl)-N,N-dimethyl-2-propenamide] | 0.00755 µM | 16.3 µM | 1.26 nM | 0.0108 µM
8 | C#CCOc1cnc(C(=O)Nc2ccc(F)c([C@@]3(CF)N=C(N)S[C@@]4(COCC(F)(F)F)C[C@H]43)c2)cn1 [Example 953, N-(3-((1S,5S,6S)-3-amino-5-(fluoromethyl)-1-((2,2,2-trifluoroethoxy)methyl)-2-thia-4-azabicyclo[4.1.0]hept-3-en-5-yl)-4-fluorophenyl)-5-(2-propyn-1-yloxy)-2-pyrazinecarboxamide] | 0.0267 µM | 61.9 µM | 0.28 nM | 0.00149 µM
9 | NC1=N[C@](CF)(c2cc(NC(=O)c3ccc(Cl)cn3)ccc2F)[C@@H]2C[C@]2(COCC(F)(F)F)S1 [Example 954, N-(3-((1S,5S,6S)-3-amino-5-(fluoromethyl)-1-((2,2,2-trifluoroethoxy)methyl)-2-thia-4-azabicyclo[4.1.0]hept-3-en-5-yl)-4-fluorophenyl)-5-chloro-2-pyridinecarboxamide] | 0.00382 µM | 715 µM | 5.79 nM | 0.0144 µM
10 | C#CCOc1cnc(C(=O)Nc2ccc(F)c([C@@]3(CF)N=C(N)S[C@@]4(COC(C)C)C[C@H]43)c2)cn1 [Example 955, N-(3-((1S,5S,6S)-3-amino-5-(fluoromethyl)-1-((1-methylethoxy)methyl)-2-thia-4-azabicyclo[4.1.0]hept-3-en-5-yl)-4-fluorophenyl)-5-(2-propyn-1-yloxy)-2-pyrazinecarboxamide] | 0.0501 µM | 48 µM | 0.805 nM | 0.00178 µM
11 | NC1=N[C@](CF)(c2cc(NC(=O)c3ccc(Cl)cn3)ccc2F)[C@@H]2C[C@]2(c2c[nH]nn2)S1 [Example 956, N-(3-((1S,5S,6S)-3-amino-5-(fluoromethyl)-1-(1H-1,2,3-triazol-4-yl)-2-thia-4-azabicyclo[4.1.0]hept-3-en-5-yl)-4-fluorophenyl)-5-chloro-2-pyridinecarboxamide] | < 0.00203 µM | 341 µM | 0.927 nM | 0.019 µM
12 | CC#C[C@]12C[C@H]1[C@@](CF)(c1cc(Nc3nccc4nc(OCc5ncco5)cnc34)ccc1F)N=C(N)S2 [Example 958, N-(3-((1S,5S,6S)-3-amino-5-(fluoromethyl)-1-(1-propyn-1-yl)-2-thia-4-azabicyclo[4.1.0]hept-3-en-5-yl)-4-fluorophenyl)-2-(1,3-oxazol-2-ylmethoxy)pyrido[3,4-b]pyrazin-5-amine] | 0.0662 µM | 354 µM | 1.2 nM | 0.04 µM
13 | C#CCOc1cnc(C(=O)Nc2ccc(F)c([C@@]3(CF)N=C(N)S[C@@]4(c5c[nH]nn5)C[C@@H]34)c2)cn1 [Example 959, N-(3-((1S,5S,6S)-3-amino-5-(fluoromethyl)-1-(1H-1,2,3-triazol-4-yl)-2-thia-4-azabicyclo[4.1.0]hept-3-en-5-yl)-4-fluorophenyl)-5-(2-propyn-1-yloxy)-2-pyrazinecarboxamide] | < 0.00203 µM | 44.1 µM | 0.0901 nM | 0.00152 µM
14 | C#CCOc1cnc2c(Nc3ccc(F)c([C@@]4(CF)N=C(N)S[C@@]5(c6c[nH]nn6)C[C@@H]45)c3)nccc2n1 [Example 960, N-(3-((1S,5S,6S)-3-amino-5-(fluoromethyl)-1-(1H-1,2,3-triazol-4-yl)-2-thia-4-azabicyclo[4.1.0]hept-3-en-5-yl)-4-fluorophenyl)-2-(2-propyn-1-yloxy)pyrido[3,4-b]pyrazin-5-amine] | 0.00422 µM | > 400 µM | 0.507 nM | 0.00624 µM
15 | C[C@]1(c2cc(Nc3ncnc4cc(C#N)cnc34)ccc2F)N=C(N)S[C@@]2(CO)[C@@H]1C2(F)F [Example 961, 4-((3-((1R,5S,6S)-3-amino-7,7-difluoro-1-(hydroxymethyl)-5-methyl-2-thia-4-azabicyclo[4.1.0]hept-3-en-5-yl)-4-fluorophenyl)amino)pyrido[3,2-d]pyrimidine-7-carbonitrile] | 0.0223 µM | 171 µM | 12 nM | 0.0214 µM
16 | NC1=N[C@](CF)(c2cc(NC(=O)c3ccc(Cl)cn3)ccc2F)[C@H]2C3CSC[C@@]32S1 (stereo partly drawn) [Example 962, N-(3-((4S,4aR,7aS)-2-amino-4-(fluoromethyl)-4a,4b,5,7-tetrahydro-4H-thieno[3′,4′:2,3]cyclopropa[1,2-e][1,3]thiazin-4-yl)-4-fluorophenyl)-5-chloropicolinamide] | 0.0199 µM | 21 µM | 10 nM | 0.104 µM
17 | CNC(=O)[C@]12C[C@H]1[C@@](C)(c1cc(NC(=O)c3cnc(OCC(F)(F)C(F)F)cn3)cc(F)c1F)N=C(N)S2 [Example 963, (1S,5S,6S)-3-amino-5-(2,3-difluoro-5-(((5-(2,2,3,3-tetrafluoropropoxy)-2-pyrazinyl)carbonyl)amino)phenyl)-N,5-dimethyl-2-thia-4-azabicyclo[4.1.0]hept-3-ene-1-carboxamide] | 0.0631 µM | 267 µM | 0.194 nM | 0.0026 µM
18 | C#CCOc1cnc(C(=O)Nc2cnc(OC)c([C@@]3(C)N=C(N)S[C@@]4(C#N)C[C@H]43)c2)cn1 [Example 964, N-(5-((1S,5S,6S)-3-amino-1-cyano-5-methyl-2-thia-4-azabicyclo[4.1.0]hept-3-en-5-yl)-6-methoxy-3-pyridinyl)-5-(2-propyn-1-yloxy)-2-pyrazinecarboxamide] | 0.00887 µM | 98.9 µM | 0.737 nM | 0.00154 µM
